Data on 8 molecules can be found in publication PMC12787000 (Molecules, 2025).

The test system of series [1] is A375 cells. Particulars: A375, 24 h, compared to untreated control.
Method: Changes in mitochondrial membrane potential were analyzed using the JC-1 Mitochondrial Membrane Potential Assay Kit (ab113850) according to the manufacturer’s instructions. […] After 24 h, cells were incubated with the JC-1 staining solution at 37 °C for 30 min in dark, washed with 1X Dilution Buffer, and analyzed by flow cytometry. […] The ratio of red J-aggregates to green JC-1 monomers was calculated to assess changes in mitochondrial membrane potential. Experiment was performed twice.
The subject of series [2] is A375 cells. The series can be described thus: MTT cell viability assay, A375. The series is classed as cell-based. Particulars: 72 h; for IC50: Homo sapiens, A-375, A375, MTT. On the procedure: (§1) A375, MRC-5, and HaCaT cell lines were obtained from the American Type Culture Collection (ATCC). 518A2 cell line was kindly provided by Dr. […]ć. All cell lines were cultured in RPMI 1640 medium supplemented with 2 g/L glucose, 10% fetal bovine serum (FBS), and antibiotics. […] Cell viability was assessed using the MTT assay (Sigma Aldrich, #M5655). […] After 72 h of incubation, absorbance was measured at 570 nm using a Multiskan SkyHigh microplate reader (Thermo Fisher Scientific, Helsinki, Finland). Values were corrected by subtracting the absorbance measured in wells containing cell-free medium with tested compounds.
A general note: Formazan colour is commonly taken as a measure of viable cells.

On the set-up of series [3]: method as in PMID 11014323. The conditions noted are these: males, oral intake of 320 mg; cited from earlier work.
Series [4] concerns A375 cells. The series can be described thus: Cellular uptake and subcellular distribution by LC-MS/MS. In kind it is cell-based. The conditions noted are these: A375, 25 μM, 24 h; for Compound accumulation normalized to telmisartan, Chromatin Bound: chromatin-bound nuclear fraction; for Compound accumulation normalized to telmisartan, Cytoplasm: cytoplasmic fraction; for Compound accumulation normalized to telmisartan, Cytoskeleton: cytoskeletal fraction; for Compound cell accumulation normalized to telmisartan, Whole Lysate: μmol compound per μg cell protein normalized to telmisartan. On the procedure: Cells were then trypsinized, washed with PBS and pelleted. For whole cell lysates, cell pellet was dissolved in RIPA buffer on ice. Fractions and whole cell lysates were stored at -80 °C until use. Protein concentration of lysates was determined with Pierce BCA Protein assay kit (Thermo Fisher #23225), and cell accumulation was calculated as μmol of compound per μg of cell protein and normalized to telmisartan. Concentrations of telmisartan and its derivatives were determined using liquid chromatography-tandem mass spectrometry (LC-MS/MS) method in positive HESI mode. The analysis was performed on UHPLC chromatograph […] (Thermo Fisher Scientific Inc., Madison, WI, USA), coupled to a triple quadrupole mass spectrometer TSQ Quantum Access MAX (Thermo Fisher Scientific Inc., Madison, WI, USA) with heated electrospray ionization (HESI) interface. The column was Zorbax Extend C18 (150 mm × 4.6 mm, 5 μm particle size). […] Experiment was repeated twice.

For series [5], the system named is MRC-5 (fetal fibroblasts). The experiment in a line: MTT cell viability assay, MRC-5. The series is classed as cell-based. Particulars: Homo sapiens, MRC5; MRC-5, MTT, 72 h. The method, then:
as §1

In series [6] the test system is HaCaT (human keratinocytes). The experiment in a line: MTT cell viability assay, HaCaT. The series is classed as cell-based. Particulars: 72 h. On the procedure: as §1
For series [7], the system named is A375R cells. The series can be described thus: Cell cycle distribution (PI, flow cytometry), A375R. The series is classed as cell-based. The conditions noted are these: 25 µM, 72 h. On the procedure: (§2) A375 and A375R cells were seeded in 6-well plates at a density of 150,000 cells per well. On the following day, the cells were treated with 25 µM concentrations of compounds 1, 3, and 8, as well as telmisartan. After 72 h of incubation, the cells were harvested using trypsin, washed with phosphate-buffered saline (PBS), fixed in ethanol, and stored at −20 °C until analysis. Ethanol-fixed cells were treated with RNase A (1 mg/mL) and stained with propidium iodide (PI; 400 µg/mL). A total of 20,000 events were recorded per sample. Quantitative analysis of the cell cycle phase distribution was performed by flow cytometry using a FACSCalibur flow cytometer (Becton Dickinson, San Jose, CA, USA) and BD CellQuest Pro Version 5.2.1 software. Experiment was performed three times. Cells under treatment were compared to controls for each cell phase separately with one-way ANOVA and Dunnett’s multiple comparison tests. p < 0.05 was considered statistically significant.
On the technique in general: A flow cytometer gives signals particle by particle.

The target of another series is T1, AT1R (Homo sapiens, UniProt P30556).
T1 construct: endogenous in cells; host or cells: A375 melanoma cells (ATCC)
T1 sequence (P30556 1-359): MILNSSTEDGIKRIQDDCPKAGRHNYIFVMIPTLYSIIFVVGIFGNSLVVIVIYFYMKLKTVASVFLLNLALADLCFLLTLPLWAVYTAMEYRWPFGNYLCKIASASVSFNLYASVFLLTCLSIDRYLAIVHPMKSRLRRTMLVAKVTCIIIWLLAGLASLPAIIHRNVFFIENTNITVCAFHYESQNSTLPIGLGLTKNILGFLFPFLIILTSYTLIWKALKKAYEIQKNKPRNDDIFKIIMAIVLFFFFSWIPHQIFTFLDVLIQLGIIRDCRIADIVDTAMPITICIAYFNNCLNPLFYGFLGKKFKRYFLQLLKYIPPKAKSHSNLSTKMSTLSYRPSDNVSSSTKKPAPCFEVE
The experiment in a line: Angiotensin II-induced Ca2+ release, Fluo-4 AM live-cell imaging. The series is classed as cell-based. Particulars: 2 min; for Effect on AngII-induced Ca2+ increase (combination treatment): A375, 25 μM compound + 1 μM AngII. The method, then: Fluo-4 AM calcium indicator dye (F14201, Molecular Probes, Eugene, OR, USA) was used to observe Ca^2+ dynamics upon treatment, per manufacturer’s instructions. Briefly, 5000 A375 cells/well were seeded in 96-well optical bottom black cell culture plates (165305, Thermo Scientific). Fluo-4 AM stock solution in DMSO was mixed with equal volume of 20% Pluronic F-127 to assist in dispersion of AM esters before dilution into the loading medium. Twenty-four hours after seeding medium was removed, and cells were washed with HBBS without calcium and magnesium. Cells were stained in HBSS medium with 1.25 μM Fluo-4-AM for 30 min at 37 °C. After incubation, cells were washed and incubated in complete medium (10%FBS RPMI) to allow de-esterification for 30 min and then treated with 1 μM human Angiotensin II (A9525, Sigma Aldrich), 50 μM telmisartan, compounds 1, 3, and 8, or the combinations. Images were taken before addition of the treatment (0 min) and after 2 min of treatment on Zeiss PALM MicroBeam Axio Observer Z1 microscope (Carl Zeiss MicroImaging GmbH, Oberkochen, Germany) with Zeiss LD Plan-Neofluar 20×/0.4 Korr, ∞/0–1.5 mm lens and AxioVision SE64 Rel.4.9.1 software. Experiment was repeated three times. Integrated density of Fluo-4 fluorescence at 2 min of exposure to treatment was calculated with Image J, and normalized to the baseline fluorescence at time 0, in at least two random fields for each condition. Conditions were compared with one-way ANOVA and Tukey’s multiple comparisons test. p < 0.05 was considered statistically significant.

In series [8] the test system is A375R cells. The series can be described thus: MTT cell viability assay, vemurafenib-resistant A375R. Particulars: for IC50: A375R, MTT, 72 h. The series is classed as cell-based. The method, then: as §1
A further series relates to 518A2 cells. The series can be described thus: MTT cell viability assay, 518A2. In kind it is cell-based. Particulars: Homo sapiens; 518A2, MTT, 72 h. On the procedure: as §1
For series [9], the system named is A375 cells. The series can be described thus: Mitochondrial morphology staining (MitoTracker Green FM). The conditions noted are these: A375, 25 μM, 24 h. The series is classed as cell-based. On the procedure:
For imaging of the mitochondrial morphology in live cells, A375 cells seeded in 96-well optical bottom plates, as above, were treated for 24 h with 25 μM telmisartan, compound 1, 3, or 8. Treatment was washed away, and cells were stained with 500 nM MitoTracker Green FM (#9074, Cell signaling Technology, Danvers, MA, USA) in RPMI without serum for 30 min at 37 °C. Cells were imaged on Zeiss PALM MicroBeam Axio Observer Z1 microscope (Carl Zeiss MicroImaging GmbH, Oberkochen, Germany) with Zeiss LD Plan-Neofluar 20×/0.4 Korr, ∞/0–1.5 mm lens and AxioVision software. Mitochondrial shape was quantified in images from two biological experimental repeats, in three random fields for each condition, using Image J Analyze Particles function. Images were first processed to 8-bit binary, and circularity and aspect ratio (major axis/minor axis) were calculated and plotted with Prism 9 (GraphPad Software, LLC, Boston, MA, USA). Treatments were compared with untreated control using one-way ANOVA and Dunnett’s multiple comparisons test. p < 0.05 was considered statistically significant.

In series [10] the test system is A375 cells. The experiment in a line: Cell cycle distribution (PI, flow cytometry), A375. In kind it is cell-based. Particulars: A375, 25 µM, 72 h. On the procedure:
as §2

A value given as a limit tells only on which side of the number the result lay.

Consider `N#CC(C#N)=NNc1ccc(OC(F)(F)F)cc1` [FCCP, carbonyl cyanide 4-(trifluoromethoxy) phenylhydrazone], for which the “Ratio of red JC-1 aggregates to green JC-1 monomers” value with A375 cells [1] was “lowest red/green ratio”.
For orientation: IC50 means the concentration that gives 50% inhibition. The low end stands for greater potency in that assay, the high end for weaker potency in that assay. `CCCc1nc2c(C)cc(-c3nc4ccccc4n3C)cc2n1Cc1ccc(-c2ccccc2C(=O)O)cc1` [Telmisartan, reference compound]: the IC50 amounted to 59.1 ± 4.17 µM in the series on A375 cells [2]; 70.4 ± 5.61 µM in [5]; 148 ± 2.89 µM in [6]; 29.2 ± 3.88 µM in the series with A375R cells [8]; 70.2 ± 3.83 µM in the series on 518A2 cells. The “Maximum steady-state plasma level” value in series [3] is “around 20 μM”. Further, the “Compound accumulation normalized to telmisartan, Chromatin Bound” value in the series on A375 cells [4] came out at 1.00. For the same molecule, the “Compound accumulation normalized to telmisartan, Cytoplasm” value with A375 cells [4] is 1.00. The “Compound accumulation normalized to telmisartan, Cytoskeleton” value in the series on A375 cells [4] is 1.00. Besides, the “Accumulation in the membrane fraction” value with A375 cells [4] (membrane fraction) came out at 0.197 µmol/L. In the series on A375 cells [4] (membrane fraction), the “Compound accumulation normalized to telmisartan, Membrane” value is listed as 1.00. For the same molecule, the “Compound cell accumulation normalized to telmisartan, Whole Lysate” value in the series on A375 cells [4] is reported as 1.00. In addition, the Cell cycle distribution entry in the series with A375R cells [7] is “cell cycle profile comparable to that of the untreated control cells”. Besides, the “Effect on AngII-induced Ca2+ increase (combination treatment)” value on AT1R is recorded as “prevented AngII-induced Ca^2+ increase”. In the series on A375R cells [8] (A375R versus normal cell lines (HaCaT, MRC-5), from IC50 values), the Selectivity is listed as > 2.40.
With `CCCc1nc2c(C)cc(-c3nc4ccccc4n3C)cc2n1Cc1ccc(-c2ccccc2C(=O)NC(Cc2cn(C)c3ccccc23)C(=O)O)cc1` (stereo not drawn) [compound 1, 2-{[4′-(1,7′-dimethyl-2′-propyl-1H-[2,5′]bibenzoimidazolyl-3′-ylmethyl)-biphenyl-2-carbonyl]-amino}-3-(1-methyl-1H-indol-3-yl)-propionic acid], the “Effect on cell viability at single concentration” value in the series on A375 cells [2] (A375, 25 μM, MTT) was “significant reductions in cell viability”. Also, the IC50 is 27.2 ± 0.63 µM in the series on A375 cells [2]; 26.7 ± 2.48 µM in series [5]; 43.9 ± 3.42 µM in [6]; 19.7 ± 8.87 µM in the series on A375R cells [8]; 23.5 ± 2.08 µM with 518A2 cells. Moreover, the Mitochondrial network morphology result in the series on A375 cells [9] is “dramatic fission and clumping of mitochondria”. Moreover, the “Compound accumulation normalized to telmisartan, Chromatin Bound” value in the series on A375 cells [4] was found to be 36.22. The “Compound accumulation normalized to telmisartan, Cytoplasm” value in the series on A375 cells [4] turned out to be 17.80. For the same molecule, the “Compound accumulation normalized to telmisartan, Cytoskeleton” value in the series with A375 cells [4] turned out to be 21.14. The “Compound accumulation normalized to telmisartan, Membrane” value in the series with A375 cells [4] (membrane fraction) was 106.59. The “Compound cell accumulation normalized to telmisartan, Whole Lysate” value in the series on A375 cells [4] is 12.08. Moreover, the Cell cycle distribution result in the series on A375 cells [10] is on record as “increased accumulation of cells in the subG1 phase, albeit not statistically significant”; with A375R cells [7] it was “cell accumulation in the G0/G1 phase”. The “Effect on AngII-induced Ca2+ increase (combination treatment)” value on AT1R is given as “did not prevent AngII-induced Ca^2+ increase”. In addition, at AT1R (A375, compound alone), the “Effect of compound alone on baseline Ca2+ signaling” value was “no significant changes in the baseline Ca^2+ signaling”.
`CCCc1nc2c(C)cc(-c3nc4ccccc4n3C)cc2n1Cc1ccc(-c2ccccc2C(=O)NC(Cc2cnc[nH]2)C(=O)O)cc1` (stereo not drawn) [compound 2, 2-{[4′-(1,7′-dimethyl-2′-propyl-1H-[2,5′]bibenzoimidazolyl-3′-ylmethyl)-biphenyl-2-carbonyl]-amino}-3-(3H-imidazol-4-yl)-propionic acid]: the IC50 in the series on A375 cells [2] and in the series on 518A2 cells was > 150 µM each time.
For `CCCc1nc2c(C)cc(-c3nc4ccccc4n3C)cc2n1Cc1ccc(-c2ccccc2C(=O)NC(C(=O)O)C(C)CC)cc1` (stereo not drawn) [compound 4, 2-{[4′-(1,7′-dimethyl-2′-propyl-1H-[2,5′]bibenzoimidazolyl-3′-ylmethyl)-biphenyl-2-carbonyl]-amino}-3-methyl-pentanoic acid], the IC50 was found to be 43 ± 6.02 µM in the series with A375 cells [2] and 49 ± 3.17 µM in the series on 518A2 cells.
On the same counts, the results for `CCCc1nc2c(C)cc(-c3nc4ccccc4n3C)cc2n1Cc1ccc(-c2ccccc2C(=O)NCC(=O)O)cc1` [compound 5, {[4′-(1,7′-dimethyl-2′-propyl-1H-[2,5′]bibenzoimidazolyl-3′-ylmethyl)-biphenyl-2-carbonyl]-amino}-acetic acid] are 86.22 ± 0.64 µM and 81.5 ± 6.28 µM.
On the same counts, the results for `CCCc1nc2c(C)cc(-c3nc4ccccc4n3C)cc2n1Cc1ccc(-c2ccccc2C(=O)NCCCC(=O)O)cc1` [compound 6, 4-{[4′-(1,7′-dimethyl-2′-propyl-1H-[2,5′]bibenzoimidazolyl-3′-ylmethyl)-biphenyl-2-carbonyl]-amino}-butyric acid] are 116 ± 6.94 µM and 89.2 ± 7.37 µM.
The corresponding values for `CCCc1nc2c(C)cc(-c3nc4ccccc4n3C)cc2n1Cc1ccc(-c2ccccc2C(=O)NC(CC(C)C)C(=O)O)cc1` (stereo not drawn) [compound 7, 2-{[4′-(1,7′-dimethyl-2′-propyl-1H-[2,5′]bibenzoimidazolyl-3′-ylmethyl)-biphenyl-2-carbonyl]-amino}-4-methyl-pentanoic acid] are 43.2 ± 3.55 µM and 39.7 ± 2.4 µM.
